In one assay the target is T1, TYRO3 (Homo sapiens, UniProt Q06418).
T1 sequence (Q06418 41-890): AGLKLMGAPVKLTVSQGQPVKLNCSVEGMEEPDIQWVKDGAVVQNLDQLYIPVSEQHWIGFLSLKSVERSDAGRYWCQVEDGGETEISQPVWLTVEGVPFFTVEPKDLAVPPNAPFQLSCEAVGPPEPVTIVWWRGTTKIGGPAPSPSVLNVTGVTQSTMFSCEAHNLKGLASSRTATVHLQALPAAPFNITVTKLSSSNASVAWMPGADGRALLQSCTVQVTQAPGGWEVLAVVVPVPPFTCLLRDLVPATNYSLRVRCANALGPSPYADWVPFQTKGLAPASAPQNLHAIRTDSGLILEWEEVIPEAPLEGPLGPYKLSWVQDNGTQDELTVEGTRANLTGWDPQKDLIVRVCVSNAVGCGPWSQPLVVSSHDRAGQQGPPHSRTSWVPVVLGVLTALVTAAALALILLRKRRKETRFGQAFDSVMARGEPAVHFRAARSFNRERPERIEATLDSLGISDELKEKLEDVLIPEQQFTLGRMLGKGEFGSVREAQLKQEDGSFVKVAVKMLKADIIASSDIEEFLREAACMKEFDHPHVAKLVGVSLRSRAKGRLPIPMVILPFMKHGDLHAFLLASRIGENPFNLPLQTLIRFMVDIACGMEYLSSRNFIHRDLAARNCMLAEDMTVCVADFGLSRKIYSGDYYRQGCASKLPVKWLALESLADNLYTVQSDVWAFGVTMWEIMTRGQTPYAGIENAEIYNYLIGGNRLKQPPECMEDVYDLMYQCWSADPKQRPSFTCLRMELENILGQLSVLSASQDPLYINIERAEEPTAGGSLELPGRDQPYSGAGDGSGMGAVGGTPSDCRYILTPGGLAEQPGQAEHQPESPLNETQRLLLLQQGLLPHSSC
Nature of the assay: TR-FRET kinase activity assay, TYRO3. The format is biochemical. The settings on record: ATP at Km, 60 minutes. Put shortly:
(§1)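 Enzyme, fluorescent peptide substrate and compound were mixed, and the reaction was started with ATP at each kinase's Km, in 50 mM HEPES pH 7.5, 10 mM MgCl2, 1 mM EGTA, 0.01% Brij 35, 1 mM DTT at RT. After 60 minutes EDTA quench, Eu-labelled phospho-specific antibody was added for 30 minutes, and IC50 was derived from TR-FRET signal loss.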

A further assay deals with T2, FLT3 (Homo sapiens, UniProt P36888).
T2 sequence (P36888 27-993): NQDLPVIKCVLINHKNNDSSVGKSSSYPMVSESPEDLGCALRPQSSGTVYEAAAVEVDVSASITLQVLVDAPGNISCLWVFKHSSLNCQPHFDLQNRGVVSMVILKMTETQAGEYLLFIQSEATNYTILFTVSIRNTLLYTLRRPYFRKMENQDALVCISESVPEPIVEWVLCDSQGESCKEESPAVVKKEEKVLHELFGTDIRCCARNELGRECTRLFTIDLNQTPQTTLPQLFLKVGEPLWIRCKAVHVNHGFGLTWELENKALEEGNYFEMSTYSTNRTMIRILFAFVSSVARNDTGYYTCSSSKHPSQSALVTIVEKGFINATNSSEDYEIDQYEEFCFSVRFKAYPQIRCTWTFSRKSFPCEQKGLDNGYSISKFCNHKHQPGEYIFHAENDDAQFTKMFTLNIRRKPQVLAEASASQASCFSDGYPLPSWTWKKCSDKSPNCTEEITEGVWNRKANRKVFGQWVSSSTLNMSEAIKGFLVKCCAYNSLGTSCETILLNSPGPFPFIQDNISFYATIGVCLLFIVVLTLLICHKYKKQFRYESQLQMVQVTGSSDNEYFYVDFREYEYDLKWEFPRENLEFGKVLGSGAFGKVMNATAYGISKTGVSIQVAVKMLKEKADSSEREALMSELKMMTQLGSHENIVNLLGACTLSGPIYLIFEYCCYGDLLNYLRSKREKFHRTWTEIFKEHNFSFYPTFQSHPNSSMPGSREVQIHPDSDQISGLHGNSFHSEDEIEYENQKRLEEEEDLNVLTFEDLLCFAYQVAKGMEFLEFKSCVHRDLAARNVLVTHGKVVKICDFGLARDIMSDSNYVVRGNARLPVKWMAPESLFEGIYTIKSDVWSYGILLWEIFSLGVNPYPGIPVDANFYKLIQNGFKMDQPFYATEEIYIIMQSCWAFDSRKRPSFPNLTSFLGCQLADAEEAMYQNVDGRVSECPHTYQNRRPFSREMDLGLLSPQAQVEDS
Nature of the assay: TR-FRET kinase activity assay, FLT3. The settings on record: ATP at Km, 60 minutes. The format is biochemical. In short, it runs like this: as §1
On the technique in general: Time-resolved FRET reads energy transfer from a long-lived donor to a nearby acceptor.

As to `COCC(C)Nc1ncc2c(-c3ccc(C(C)N4CCOCC4)cc3)cc(C3CCC(O)CC3)n2n1` (stereo not drawn) [Compound 143], the IC50 against TYRO3 and at FLT3 was not above 100 nM throughout.

Take `C[C@@H](CC(F)(F)F)Nc1ncc2c(-c3ccnc([S@](C)(=N)=O)c3)cc([C@H]3CC[C@H](O)CC3)n2n1` [Compound 580]: the IC50 on TYRO3 and against FLT3 was not above 100 nM each time.

As to `CCOCC(C)Nc1ncc2c(-c3ccc(CN4CCN(C)CC4)cc3)cc(C3CCC(O)CC3)n2n1` (stereo not drawn) [Compound 138], the concentration for half-maximal inhibition (IC50) – broadly, the concentration at which inhibition is half-maximal – was not above 100 nM against TYRO3 and 100 to 1000 nM against FLT3.

For `COC[C@H](C)Nc1ncc2c(-c3ccc(CN4CCOCC4)cc3)cc([C@H]3CC[C@H](O)CC3)n2n1` [Compound 140], the IC50 against TYRO3 was not above 100 nM; against FLT3 it was 100 to 1000 nM.

For the compound `COC[C@H](C)Nc1ncc2c(-c3cncc([S@](C)(=N)=O)c3)cc([C@H]3CC[C@@H](O)CC3)n2n1` [Compound 572], the 50% inhibitory concentration (IC50) was not above 100 nM against TYRO3 and more than 10000 nM at FLT3.

As for `COC[C@H](C)Nc1ncc2c(-c3ccnc(N4CCOCC4)c3)cc([C@H]3CC[C@@](C)(O)CC3)n2n1` [Compound 548], the values for the IC50 at TYRO3 and against FLT3 were not above 100 nM and 100 to 1000 nM, respectively.

Consider `COC[C@H](C)Nc1ncc2c(-c3cnn(C(C)(C)C(=O)N4CCO[C@@H](C(C)(C)O)C4)c3)cc([C@H]3CC[C@H](O)CC3)n2n1` [Compound 585], for which the IC50 on TYRO3 is not above 100 nM; against FLT3 it was 1000 to 10000 nM.

As for `C[C@@H](COC(F)F)Nc1ncc2c(-c3cnn(C(C)(C)C(=O)N4CCN(C)CC4)c3)cc([C@H]3CC[C@H](O)CC3)n2n1` [Compound 593], the IC50 on TYRO3 is not above 100 nM; against FLT3, 100 to 1000 nM.

For `COC[C@H](C)Nc1ncc2c([C@H]3CC[C@H](C(=O)N4CC5(COC5)C4)CC3)cc([C@H]3CC[C@H](O)CC3)n2n1` [Compound 578], the IC50 against TYRO3 is not above 100 nM; on FLT3, 1000 to 10000 nM.

In the case of `C[C@@H](Nc1ncc2c(-c3cnn(C4COC4)c3)cc([C@H]3CC[C@H](O)CC3)n2n1)C(F)(F)F` [Compound 527], the IC50 against TYRO3 was not above 100 nM; against FLT3, 100 to 1000 nM.

With `COCC(C)Nc1ncc2c(-c3cnn(C4COC4)c3)cc(C3CCNC(=O)C3)n2n1` (mixture of isomers) [Compound 592], the IC50 against TYRO3 was not above 100 nM; at FLT3 it was 1000 to 10000 nM.

Consider `CC(Nc1ncc2c(-c3cnn(C4COC4)c3)cc(C3CCC(O)CC3)n2n1)c1cccnc1` (racemic) [Compound 536], for which the IC50 on TYRO3 is not above 100 nM; against FLT3, 1000 to 10000 nM.

Consider `COC[C@H](C)Nc1ncc2c(-c3ccc([S@](C)(=N)=O)nc3)cc([C@H]3CC[C@H](O)CC3)n2n1` [Compound 532], for which the values for the IC50 against TYRO3 and against FLT3 were not above 100 nM and 1000 to 10000 nM, respectively.

As to `COC[C@H](C)Nc1ncc2c(-c3ccnc(N4CCO[C@H](C(C)(C)O)C4)c3)cc([C@H]3CC[C@H](O)CC3)n2n1` [Compound 558], the IC50 is not above 100 nM at TYRO3 and 100 to 1000 nM against FLT3.

For `COC[C@H](C)Nc1ncc2c(-c3cnn(C4COC4)c3)cc(C3CCC(F)(F)CC3)n2n1` [Compound 515], the IC50 against TYRO3 is not above 100 nM; against FLT3, 100 to 1000 nM.

As for `CCS(=O)(=O)N1CC(CC#N)(n2cc(-c3cc([C@H]4CC[C@H](O)CC4)n4nc(N[C@@H](C)COC)ncc34)cn2)C1` [Compound 567], the half-maximal inhibitory concentration (IC50) was not above 100 nM against TYRO3 and 1000 to 10000 nM against FLT3.

Take `COC[C@H](C)Nc1ncc2c(-c3ccnc(N4CCc5cnn(C)c5C4)c3)cc([C@H]3CC[C@H](O)CC3)n2n1` [Compound 518]: the IC50 against TYRO3 was not above 100 nM; against FLT3, 1000 to 10000 nM.

As for `COC[C@H](C)Nc1ncc2c(-c3cnn(C(C)(C)C(=O)N4C[C@@H](C)N[C@@H](C)C4)c3)cc([C@H]3CC[C@@H](O)CC3)n2n1` [Compound 591], the IC50 on TYRO3 was not above 100 nM; against FLT3 it was 1000 to 10000 nM.

With `COC[C@H](C)Nc1ncc2c(-c3cnn(C4COC4)c3)cc([C@@H]3CC[C@H](O)C(C)(C)C3)n2n1` [Compound 571], the half-maximal inhibitory concentration (IC50) against TYRO3 was not above 100 nM; against FLT3, 100 to 1000 nM.

Consider `CC[C@H](C)Nc1ncc2c(C3CCNCC3)cc([C@H]3CC[C@H](O)CC3)n2n1` [Compound 135, (trans)-4-(2-((S)-sec-butylamino)-5-(piperidin-4-yl)pyrrolo[2,1-f][1,2,4]triazin-7-yl)cyclohexanol], for which the results for the IC50 at TYRO3 and at FLT3 were not above 100 nM and 100 to 1000 nM, respectively.

In the case of `COCC(C)Nc1ncc2c(-c3ccc4ocnc4c3)cc(C3CCC(O)CC3)n2n1` (stereo not drawn) [Compound 550], the IC50 against TYRO3 was not above 100 nM; on FLT3 it was 100 to 1000 nM.

Turning to `C[C@@H](CC(F)(F)F)Nc1ncc2c(-c3ccnc([S@@](C)(=N)=O)c3)cc([C@H]3CC[C@H](O)CC3)n2n1` [Compound 581], the IC50 against TYRO3 and against FLT3 was not above 100 nM throughout.

Regarding `COCC(C)Nc1ncc2c(-c3cccc(-c4nnc(C)o4)c3)cc(C3CCC(O)CC3)n2n1` (stereo not drawn) [Compound 551], the IC50 against TYRO3 is not above 100 nM; at FLT3, 1000 to 10000 nM.

As to `CCCCC[C@H](C)Nc1ncc2c([C@H]3CC[C@@H](C(=O)N4CCS(=O)(=O)CC4)CC3)cc([C@H]3CC[C@H](O)CC3)n2n1` [Compound 137], the IC50 against TYRO3 is not above 100 nM; against FLT3, 100 to 1000 nM.

As for `COCC(C)Nc1ncc2c(-c3cccc(N4CCOCC4)c3)cc(C3CCC(O)CC3)n2n1` (stereo not drawn) [Compound 562], the IC50 at TYRO3 and against FLT3 was not above 100 nM throughout.

With `COC[C@H](C)Nc1ncc2c(-c3cnn(C(C)(C)c4nnc(C5CC5)o4)c3)cc([C@H]3CC[C@H](O)CC3)n2n1` [Compound 563], the IC50 against TYRO3 is not above 100 nM; at FLT3, 100 to 1000 nM.

As for `COC[C@H](C)Nc1ncc2c(-c3cnn(C4COC4)c3)cc([C@@H]3CC[C@@H](O)[C@H](C)C3)n2n1` [Compound 589], the IC50 was not above 100 nM against TYRO3 and 100 to 1000 nM on FLT3.

Take `CC[C@H](C)Nc1ncc2c(C3CCN(c4nccc(C)n4)CC3)cc([C@H]3CC[C@H](O)CC3)n2n1` [Compound 136, (trans)-4-(2-((S)-sec-butylamino)-5-(1-(4-methylpyrimidin-2-yl)piperidin-4-yl)pyrrolo[2,1-f][1,2,4]triazin-7-yl)cyclohexanol]: the IC50 on TYRO3 is 100 to 1000 nM; against FLT3, 1000 to 10000 nM.

Regarding `C[C@@H](CC(F)(F)F)Nc1ncc2c(-c3cncc([S@@](C)(=N)=O)c3)cc([C@H]3CC[C@H](O)CC3)n2n1` [Compound 583], the figures for the IC50 against TYRO3 and against FLT3 were not above 100 nM and 100 to 1000 nM, respectively.

On to `COC[C@H](C)Nc1ncc2c(-c3cnn(C4COC4)c3)cc([C@@H]3CC[C@H](O)[C@@H](C)C3)n2n1` [Compound 588], for which the IC50 against TYRO3 was not above 100 nM; against FLT3, 100 to 1000 nM.

As for `COC[C@H](C)Nc1ncc2c(-c3ccnc([S@@](C)(=N)=O)c3)cc([C@H]3CC[C@H](O)CC3)n2n1` [Compound 574], the half-maximal inhibitory concentration (IC50) on TYRO3 was not above 100 nM; against FLT3 it was 1000 to 10000 nM.

Turning to `COC[C@H](C)Nc1ncc2c([C@H]3CC[C@@H](C(=O)N4CCC(F)(F)CC4)CC3)cc([C@H]3CC[C@H](O)CC3)n2n1` [Compound 577], the results for the IC50 on TYRO3 and at FLT3 were not above 100 nM and 1000 to 10000 nM, respectively.

As to `CC[C@]1(O)CC[C@H](c2cc(-c3ccnc(N4CCOCC4)c3)c3cnc(N[C@@H](C)COC)nn32)CC1` [Compound 568], the results for the IC50 against TYRO3 and against FLT3 were not above 100 nM and 100 to 1000 nM, respectively.

(Values after US11040981B2, “Pyrrolotriazine compounds and methods of inhibiting TAM kinases” (Syros Pharmaceuticals, Inc., priority 2017, dated 2021).)
